Assay results as given in US20160244755A1, “TREATING DISEASES ASSOCIATED WITH PGC1-ALPHA BY MODULATING MICRORNAS MIR-130A AND MIR-130B” (ACADEMIA SINICA;, priority 2013, published 2016).
“Also recorded” adds a separate entry of the source. Like-named read-outs stand apart in the source and are kept apart here.

Tests used:
Type in all cases: cell-based, human
3′ UTR of PGC1α = assay: compensatory mutagenesis luciferase cotransfection assay, PGC1α 3′UTR
Procedure: (§1) Assay for 3′ UTR or enhancer/promoter was as described previously. Chen, H. L., et al., PloS one 7, e34116 (2012).
To distinguish between a direct and an indirect mechanism of miR-130a on reducing PGC1α mRNA, a reporter assay was performed using 3′UTR from either PPARγ or PGC1α. […] Next, compensatory mutations were introduced into the seed sequences of miR-130a and its evolutionarily conserved target site of PGC1α (FIG. 10). […] In a dose-dependent manner, miR-130a could reduce, while LNA-miR-130a could increase, the luciferase activity of a reporter containing the 3′UTR of PGC1α (FIG. 11).

G6Pase mRNA = G6Pase mRNA in stable miR-130a expressing HepG2 cells (Northern blot)
Procedure: (§2) HBV core particle-associated DNA, total cellular cytoplasmic RNA, and microRNA were analyzed by Northern blot as described previously. Chua, P. K., et al. Journal of virology 84, 2340-2351 (2010), Le Pogam, S., et al., Journal of virology 79, 1871-1887 (2005).
(§3) Approximately one million Huh7 and HepG2 cells were transiently transfected by 3 μg plasmid DNA (pSuper and pSuper-miR-130a) with Polyjet (SignaGen), followed by G418 selection for three weeks. The G418-resistant colonies were pooled together.

PGC1α mRNA = PGC1α mRNA in stable miR-130a expressing cell lines (Northern blot, RT-qPCR); details: stable miR-130a expressing HepG2 cell lines
Procedure: (§4) Briefly, 2 μg of total RNA was reverse transcribed into cDNA using random primers and High Capacity cDNA Reverse Transcription kit (Applied Biosystem) at 37° C. for 120 minutes. The cDNA product was then diluted 100 times for real-time PCR analysis using Power SYBR Green PCR master mix (Applied Biosystem), and the default condition in a 20 μl reaction volume by Applied Biosystems 7500 Real-Time PCR System. Data were analyzed by relative quantification methods (AACt methods) using 7500 software V2.0.1.
as §2, §3

PPARα = PPARα protein in stable miR-130a expressing HepG2 cell lines (Western blot)
Procedure: (§5) Native agarose gel electrophoresis and Western blot for detecting HBV core particles were as described. Chua, P. K., et al. Journal of virology 84, 2340-2351 (2010),
as §3

adiponectin [1] = assay: secreted adiponectin ELISA, miR-130a expressing cell lines
Procedure: The concentration of secreted adiponectin was measured by ELISA (Biovision). ELISA of HBsAg and HBeAg was from General Biologicals Co., Taiwan.
as §3

glucokinase (GCK) = glucokinase (GCK) protein in stable miR-130a expressing HepG2 cells (Western blot)
Source text: (§6) Anti-HBc (Dako), anti-PPARγ (Santa Cruz), anti-GAPDH, anti-PKLR, anti-G6Pase, anti-tubulin, anti-adiponectin (GeneTex, Taiwan), anti-PGC1α (Origene), anti-PCK1 (Abnova), anti-GCK (Biovision), Secondary antibodies include mouse anti-rabbit-HRP, goat anti-mouse-HRP (GeneTex, Taiwan) and donkey anti-goat-HRP (Santa Cruz).
as §5, §3

[2] = tested on: 3′ UTR of PPARγ (NM_005037); assay: luciferase reporter cotransfection assay, 3′ UTR of PPARγ
Source text: as §1

G6Pase = G6Pase protein in miR-130a expressing hepatocytes (Western blot)
Source text: as §6, §5, §3

GCK mRNA = GCK mRNA in stable miR-130a expressing cells (RT-qPCR)
Procedure: as §4, §3

pyruvate kinase (PKLR) = pyruvate kinase (PKLR) protein in stable miR-130a expressing cells (Western blot); details: stable miR-130a expressing Huh? cells
Source text: as §6, §5, §3

PKLR mRNA = PKLR mRNA in stable miR-130a expressing cells (RT-qPCR)
Procedure: as §4, §3

PGC1α = PGC1α protein in stable miR-130a expressing cells (Western blot)
Source text: as §6, §5, §3

PPARγ mRNA = PPARγ mRNA in stable miR-130a expressing cell lines (Northern blot, RT-qPCR); details: stable miR-130a expressing HepG2 cell lines
Procedure: as §4, §2, §3

CEBPb = CEBPb protein in stable miR-130a expressing HepG2 cell lines (Western blot)
Procedure: as §5, §3

SP1 = SP1 protein in stable miR-130a expressing HepG2 cell lines (Western blot)
Procedure: as §5, §3

HepG2 cells = assay: measurement of glucose production in cell culture; parameters: glucose production: dose or concentration left out as unconfirmed
Procedure: Rosiglitazone and GW9662 were from Sigma. HepG2 and Huh7 cells were seeded in 6-well tissue culture plates at 5×10, Quasdorff, M. et al. Journal of viral hepatitis 17, 527-536 (2010) cells/well. At 24 h post-transfection, Rosiglitazone or GW9662 in 0.1% DMSO was added to medium. Culture medium was changed ever two days before harvest.
The glucose level of HBV transgenic mice was measured using a kit of DRI-CHEM SLIDE GLU-PIII (FUJIFILM, JAPAN). Ten microliters of mouse serum was deposited on a FUJI DRI-CHEM SLIDE GLU-PIII. Glucose oxidase (GOD) catalyzes the oxidization of sample glucose to generate hydrogen peroxide which then reacts with dye precursors and forms red dye. The optical reflection density was measured at 505 nm by the FUJI DRI-CHEM analyzer and converted into the glucose concentration […]. For the measurement of glucose concentration in cell culture, HBV producing cells (HepG2 and Q7 cells) were treated with PPARγ antagonist, GW9662 at indicated concentrations. Twenty-four hours before glucose measurement, the medium was replaced with 1 ml of glucose-free DMEM, supplemented with 2 mM sodium pyruvate. After 16 hrs incubation, 50 μl of medium was collected and the glucose concentration (mM) was measured using the glucose colorimetric assay (Biovision).

PPARγ = PPARγ protein in stable miR-130a expressing cells (Western blot)
Source text: as §6, §5, §3

PEPCK mRNA = PEPCK mRNA in stable miR-130a expressing HepG2 cells (Northern blot)
Procedure: as §2, §3

HNF4 = HNF4 protein in stable miR-130a expressing HepG2 cell lines (Western blot)
Procedure: as §5, §3

PEPCK = PEPCK protein in miR-130a expressing hepatocytes (Western blot)
Source text: as §6, §5, §3

[3] = tested on: 3′ UTR of PGC1α (NM_013261); assay: luciferase reporter cotransfection assay, 3′ UTR of PGC1α; details: for luciferase activity, reporter with 3′ UTR of PGC1α: reporter cotransfection assay
Source text: as §1

adiponectin [4] = assay: adiponectin protein in stable miR-130a expressing cells (Western blot)
Source text: as §6, §5, §3

miR-130a = miR-130a expression in PPARγ-expressing HepG2 cell lines (stem-loop qPCR); details: stable PPARγ-expressing HepG2 cell lines, U6 snRNA internal control
Procedure: Rosiglitazone and GW9662 were from Sigma. […] At 24 h post-transfection, Rosiglitazone or GW9662 in 0.1% DMSO was added to medium. Culture medium was changed ever two days before harvest.
Briefly, 100 ng RNAs were reverse transcribed by specific stem-loop primer and further analyzed by Taqman real-time PCR assay using default setting. […] Data were analyzed by Applied Biosystems 7500 software V2.0.1.

mutant miR-130a: miR-130a with compensatory mutations in the seed sequence, SEQ ID NO: 69 (CUGAGCAAUGUUAAAAGGGCAU; listed as RNA, chemistry not given here) [reference compound]
luciferase activity, mutant PGC1α 3′UTR target site (3′ UTR of PGC1α; combination of mutant miR-130a and mutant PGC1α, cotransfection): restore the inhibitory effect

miR-130a: human microRNA comprising CAGUGCAAUGUUAAAAGGGCAU (SEQ ID NO:1); expressed from pSuper-miR-130a in stable cell lines
G6Pase mRNA expression (G6Pase mRNA): reductions; also recorded: reduced
PGC1α mRNA (PGC1α mRNA): reduction
protein level of PPARα (PPARα): No appreciable difference
secreted adiponectin (adiponectin [1]): significantly reduced; also recorded: reduction
glucokinase (GCK) protein level (glucokinase (GCK)): not reduced but increased; also recorded: increased level
luciferase activity, reporter with 3′ UTR of PPARγ [2]: functional interaction
luciferase activity, reporter with 3′ UTR of PPARγ ([2]; listed as MiR-130a): significantly reduced
G6Pase protein expression (G6Pase): reductions; also recorded: Reduced
GCK specific mRNA level (GCK mRNA): increased
pyruvate kinase (PKLR) protein level (pyruvate kinase (PKLR)): not reduced but increased; also recorded: increased level
PKLR specific mRNA level (PKLR mRNA): increased
PGC1α protein (PGC1α): reduction
PPARγ mRNA (PPARγ mRNA): reduction
protein level of CEBPb (CEBPb): No appreciable difference
protein level of SP1 (SP1): No appreciable difference
direct targeting of 3′ UTR of PGC1α by compensatory mutagenesis (3′ UTR of PGC1α; p<0.05): directly target
glucose level (HepG2 cells; control vs miR-130a producing cells): No significant difference
PPARγ protein (PPARγ): reduction
PEPCK mRNA expression (PEPCK mRNA): reductions; also recorded: reduced
protein level of HNF4 (HNF4): No appreciable difference
PEPCK protein expression (PEPCK): reductions; also recorded: Reduced
PGC1α 3′UTR luciferase reporter activity with increasing amounts ([3]; dose response, co-transfection): reduce; also recorded: decreasing reporter activity in a dose response manner
luciferase activity, reporter with 3′ UTR of PGC1α [3]: functional interaction
luciferase activity, reporter with 3′ UTR of PGC1α ([3]; listed as MiR-130a): significantly reduced
adiponectin protein (adiponectin [4]): reduction

O=C(Nc1ccccc1)c1cc([N+](=O)[O-])ccc1Cl [GW9662]
expression of miR-130a (miR-130a): not
glucose production (HepG2 cells; HepG2 cells, irrespective of HBV-producing status): further increased; also recorded: increase
